Assays:
[1] = tested on: TNF-α; test: expression of inflammation-related gene TNF-α in liver tissues, NASH-induced model; format: in vivo, mouse; conditions: high fat diet 30 weeks
Description: (§1) Total RNA was extracted using an RNeasy mini kit (Qiagen), and then synthesized into cDNA using a high-capacity cDNA reverse transcription kit (Thermo Fisher). The same amount of cDNA was amplified using a SYBR™ green PCR master mix and a 10 pM primer set for each gene. The amplification process was subjected to an initial denaturation process at 95° C. for 5 minutes, and repetitively replication at 95° C. for 10 seconds, 58.5° C. for 10 seconds, and 72° C. for 10 seconds for a total of 40 times.

[2] = tested on: NASH-induced model mouse; test: blood biochemical test: serum total cholesterol, NASH-induced model; format: in vivo; conditions: for Total cholesterol: serum, HFD + Colchicine alone
Description: A total cholesterol amount of mice was measured using a Total cholesterol assay kit (Cell Biolabs). […] Thereafter, 50 μl of a cholesterol reaction reagent was added, and the reaction was performed at 37° C. for 45 minutes by shielding light. For the sample after the reaction, absorbance was measured at 540 to 570 nm using a microplate reader.

[3] = tested on: collagen I; test: expression of collagen I increased by TGF-β1 in hepatocytes AML12; format: cell-based, mouse; conditions: AML12 cells; for additive interaction with colchicine in inhibiting the expression of collagen I: 5 nM colchicine + 30 μg/ml DPP-4 inhibitor, TGF-β1 (5 ng/ml)
Description: (§2) Mouse hepatocytes, AML12 cells, were incubated at 37° C., 95% air and 5% CO2 in a DMEM/F12 medium containing 5 μg/ml insulin, 5 μg/ml transferrin, 5 ng/ml selenium, 40 ng/ml dexamethasone, 10% fetal bovine serum (FBS) and 1% penicillin/streptomycin. AML12 cells pre-treated with 5 nM of colchicine and 30 μg/ml of a dipeptidyl peptidase-4 (DPP-4) inhibitor were treated with TGF-β1 (5 ng/ml) or 0.2 mM of palmitate after 8 hours, and further incubated for additional 16 hours.
as §1

[4] = tested on: NASH-induced model mouse; test: blood biochemical test: serum bilirubin, NASH-induced model; conditions: for Bilirubin: serum, HFD + Colchicine alone
[5] = tested on: SREBP1; test: expression of fat accumulation-related gene SREBP1 in liver tissues, NASH-induced model; format: in vivo, mouse; conditions: high fat diet 30 weeks
Description: as §1

[6] = tested on: Dgat (Diglyceride acyltransferase); test: expression of fat accumulation-related gene Dgat in liver tissues, NASH-induced model; format: in vivo, mouse; conditions: high fat diet 30 weeks
Description: as §1

[7] = tested on: NASH-induced model mouse; test: hydroxyproline in liver tissues, NASH-induced model; format: in vivo; conditions: high fat diet 30 weeks
Description: 100 mg of liver tissue was homogenized with physiological saline, and then a liver tissue supernatant was separated. The separated supernatant was hydrolyzed at 120° C. for 3 hours by adding the same amount of 12 N HCl. The cooled sample was vortexed and then centrifuged at 10,000 g for 3 minutes, and absorbance was measured at 550 nm using a final microplate reader by using a hydroxyproline assay kit.

[8] = tested on: collagen I; test: expression of fibrosis-related gene collagen I in liver tissues, NASH-induced model; format: in vivo, mouse; conditions: high fat diet 30 weeks
Description: as §1

[9] = tested on: NASH-induced model mouse; test: superoxide (DHE) in liver tissues, NASH-induced model; format: in vivo; conditions: high fat diet 30 weeks
Description: In order to measure production of superoxide in liver tissues of mice, dihydroethidium (DHE) was used as a superoxide fluorescent indicator. In summary, deparaffinized liver tissue slides were reacted at 37° C. for 30 minutes with 10 μM DHE in a light-shielded humidity chamber. After the reaction, fluorescence indicating DHE was measured through a filter in a wavelength band of 580 nm in an Olympus FV1000 fluorescence microscope.

[10] = tested on: nonalcoholic steatohepatitis (NASH)-induced model mouse; test: H&E staining of liver tissues, fat accumulation, NASH-induced model; format: in vivo; conditions: high fat diet 30 weeks
Description: For H&E staining, deparaffinized tissues were reacted with a 50% hematoxylin solution at room temperature for 20 minutes, reacted with 1% HCl for 1 second, and then immediately transferred to a 0.5% eosin solution and stained for 20 minutes. Thereafter, the tissue was washed with distilled water, reacted with graded alcohol and finally dehydrated with xylene. The dehydrated tissue was fixed on a coverslip using a permount.

[11] = tested on: NASH-induced model mouse; test: blood biochemical test: serum AST, NASH-induced model; format: in vivo; conditions: for AST: serum, HFD + Colchicine alone
Description: The activity of aspartate aminotransferase (AST) of mice was measured using an AST activity assay kit (Abcam).

[12] = tested on: IL-1β; test: expression of IL-1β induced by palmitate in hepatocytes AML12; format: cell-based, mouse; conditions: AML12 cells
Description: as §2, §1

[13] = tested on: IL-1β; test: expression of inflammation-related gene IL-1β in liver tissues, NASH-induced model; format: in vivo, mouse; conditions: high fat diet 30 weeks
Description: as §1

[14] = tested on: ApoA1 (Apolipoprotein A1); test: expression of fat accumulation-related gene ApoA1 in liver tissues, NASH-induced model; format: in vivo, mouse; conditions: high fat diet 30 weeks
Description: as §1

[15] = tested on: NASH-induced model mouse; test: blood biochemical test: serum triglyceride, NASH-induced model; format: in vivo; conditions: for Triglyceride: serum, HFD + Colchicine alone
Description: Triglyceride levels in mice were measured using an EZ-Triglyceride quantification assay kit (Dogen Bio). 1 ml of 5% NP-40 was added to a mouse serum sample, homogenized on ice, and then sufficiently cooled at room temperature. The sample in which all triglycerides were dissolved by heating once more was centrifuged at 13,000 rpm for 2 minutes, and then an insoluble material was removed, and the sample was diluted 10-fold with distilled water before assay. 2 μl of lipase was added to the sample dispensed in a 96 well plate by 90 μl and reacted for 20 minutes at room temperature, and then the reaction mixture was added to each sample by 50 μl, and further reacted at room temperature for 30 minutes in a light-shielded state. Thereafter, absorbance was measured at 570 nm using a microplate reader.

[16] = tested on: IL-6; test: expression of inflammation-related gene IL-6 in liver tissues, NASH-induced model; format: in vivo, mouse; conditions: high fat diet 30 weeks
Description: as §1

[17] = tested on: SREBP1; test: expression of SREBP1 induced by palmitate in hepatocytes AML12; format: cell-based, mouse; conditions: AML12 cells; for additive interaction with colchicine in inhibiting the expression of SREBP1: 5 nM colchicine + 30 μg/ml DPP-4 inhibitor, 0.2 mM palmitate
Description: as §2, §1

[18] = tested on: NASH-induced model mouse; test: blood biochemical test: serum ALT, NASH-induced model; format: in vivo; conditions: for ALT: serum, HFD + Colchicine alone
Description: The activity of alanine aminotransferase (ALT) of mice was measured using an ALT activity assay kit (Sigma-Aldrich).

[19] = tested on: α-SMA (α-smooth muscle actin); test: expression of fibrosis-related gene α-SMA in liver tissues, NASH-induced model; format: in vivo, mouse; conditions: high fat diet 30 weeks
Description: as §1

[20] = tested on: TGF-β1; test: expression of fibrosis-related gene TGF-β1 in liver tissues, NASH-induced model; format: in vivo, mouse; conditions: high fat diet 30 weeks
Description: as §1

[21] = colchicine 40 μg/kg alone, orally once a day
[22] = 5 nM colchicine alone, 0.2 mM palmitate after 8 hours, additional 16 hours
[23] = co-administration with colchicine, for each sitagliptin concentration
[24] = high-fat diet 30 weeks, sitagliptin co-administered with colchicine by concentration
[25] = co-administration with colchicine 40 μg/kg, for each sitagliptin concentration

## COc1cc2c(c(OC)c1OC)-c1ccc(OC)c(=O)cc1[C@@H](NC(C)=O)CC2 [Colchicine, colchicine]
[1]; colchicine 40 μg/kg alone
  expression of TNF-α in liver tissues: reduced
[2]
  Total cholesterol: 264.8 ± 0.87 mg/dL
[2]; listed as colchicine
  Total cholesterol: decreased
[3]; 5 nM colchicine alone, TGF-β1 (5 ng/ml) after 8 hours, additional 16 hours
  expression of collagen I increased by TGF-β1: reduced
[4]
  Bilirubin: 0.57 ± 0.05 mg/dL
[4]; listed as colchicine
  Bilirubin: decreased
[5]; colchicine 40 μg/kg alone
  expression of SREBP1 in liver tissues: reduced
[6]; colchicine 40 μg/kg alone
  expression of Dgat in liver tissues: reduced
[7]; [21]
  accumulation of hydroxyproline in liver tissues: reduced
[8]; colchicine 40 μg/kg alone
  expression of collagen I in liver tissues: reduced
[9]; colchicine 40 μg/kg alone
  production of superoxide in liver tissues: reduced
[10]; [21]
  fat accumulation in liver tissues (H&E): slightly reduced
[11]
  AST: 200.7 ± 2.74 U/L
[11]; listed as colchicine
  AST: decreased
[12]; [22]
  expression of IL-1β induced by palmitate: reduced
[13]; colchicine 40 μg/kg alone
  expression of IL-1β in liver tissues: reduced
[14]; colchicine 40 μg/kg alone
  expression of ApoA1 in liver tissues: reduced
[15]
  Triglyceride: 201.9 ± 0.27 mg/dL
[15]; listed as colchicine
  Triglyceride: decreased
[16]; colchicine 40 μg/kg alone
  expression of IL-6 in liver tissues: reduced
[17]; [22]
  expression of SREBP1 induced by palmitate: reduced
[18]
  ALT: 154.7 ± 4.24 U/L
[18]; listed as colchicine
  ALT: decreased
[19]; colchicine 40 μg/kg alone
  expression of α-SMA in liver tissues: reduced
[20]; colchicine 40 μg/kg alone
  expression of TGF-β1 in liver tissues: reduced

## CC(C)(C)OC[C@@H]1C(=O)NCCN1C(=O)C[C@H](N)Cc1cc(F)c(F)cc1F [evogliptin]
[3]
  additive interaction with colchicine in inhibiting the expression of collagen I: slight additive interaction

## N[C@@H](CC(=O)N1CCn2c(nnc2C(F)(F)F)C1)Cc1cc(F)c(F)cc1F [sitagliptin]
[1]; [23]
  effect of reducing the expression of TNF-α, interaction with colchicine: additive interaction
[2]; [24]
  level of cholesterol in serum, additive interaction compared with colchicine alone: decreases further
[3]
  additive interaction with colchicine in inhibiting the expression of collagen I: most excellent additive interaction
[4]; [24]
  level of bilirubin in serum, additive interaction compared with colchicine alone: decreases further
[5]; [23]
  effect of reducing the expression of SREBP1, interaction with colchicine: additive interaction
[6]; [23]
  effect of reducing the expression of Dgat, interaction with colchicine: additive interaction
[7]; [25]
  hydroxyproline inhibitory effect, interaction with colchicine: additive interaction
[8]; [23]
  effect of reducing the expression of collagen I, interaction with colchicine: additive interaction
[9]; [23]
  effect of reducing the production of superoxide, interaction with colchicine: additive interaction
[10]; [25]
  steatosis reduction effect, interaction with colchicine: additive interaction
[11]; [24]
  level of AST in serum, additive interaction compared with colchicine alone: decreases further
[12]; 5 nM colchicine + 30 μg/ml DPP-4 inhibitor, 0.2 mM palmitate
  additive interaction with colchicine in inhibiting the expression of IL-1β: most excellent additive interaction
[13]; [23]
  effect of reducing the expression of IL-1β, interaction with colchicine: additive interaction
[14]; [23]
  effect of reducing the expression of ApoA1, interaction with colchicine: additive interaction
[15]; [24]
  level of triglyceride in serum, additive interaction compared with colchicine alone: decreases further
[16]; [23]
  effect of reducing the expression of IL-6, interaction with colchicine: additive interaction
[17]
  additive interaction with colchicine in inhibiting the expression of SREBP1: most excellent additive interaction
[18]; [24]
  level of ALT in serum, additive interaction compared with colchicine alone: decreases further
[19]; [23]
  effect of reducing the expression of α-SMA, interaction with colchicine: additive interaction
[20]; [23]
  effect of reducing the expression of TGF-β1, interaction with colchicine: additive interaction

## Cc1cc(N2CCN([C@@H]3CN[C@H](C(=O)N4CCSC4)C3)CC2)n(-c2ccccc2)n1 [teneligliptin]
[3]
  additive interaction with colchicine in inhibiting the expression of collagen I: slight additive interaction
[17]
  additive interaction with colchicine in inhibiting the expression of SREBP1: excluding

## N#C[C@@H]1CCCN1C(=O)CNC12CC3CC(CC(O)(C3)C1)C2 [vildagliptin]
[3]
  additive interaction with colchicine in inhibiting the expression of collagen I: slight additive interaction

— patent US20220079895A1, “COMPOSITION FOR PREVENTING OR TREATING LIVER DISEASES” (AceBiomed, Inc., priority 2020, published 2022)
